Test results reported in ChEMBL document CHEMBL5465560, “Selectivity Literature for EUbOPEN Chemogenomic Library” (2024).
Blank lines part the entries; values can stand above or below the molecule they belong to.

Columns and labels:
[1] = target: Calcium/calmodulin-dependent protein kinase kinase 2 (Homo sapiens) (UniProt Q96RR4); settings: at 10 µM
[2] = target: T1, Serine/threonine-protein kinase ICK (Homo sapiens) (UniProt Q9UPZ9); settings: at 10 µM
T1 sequence (whole entry): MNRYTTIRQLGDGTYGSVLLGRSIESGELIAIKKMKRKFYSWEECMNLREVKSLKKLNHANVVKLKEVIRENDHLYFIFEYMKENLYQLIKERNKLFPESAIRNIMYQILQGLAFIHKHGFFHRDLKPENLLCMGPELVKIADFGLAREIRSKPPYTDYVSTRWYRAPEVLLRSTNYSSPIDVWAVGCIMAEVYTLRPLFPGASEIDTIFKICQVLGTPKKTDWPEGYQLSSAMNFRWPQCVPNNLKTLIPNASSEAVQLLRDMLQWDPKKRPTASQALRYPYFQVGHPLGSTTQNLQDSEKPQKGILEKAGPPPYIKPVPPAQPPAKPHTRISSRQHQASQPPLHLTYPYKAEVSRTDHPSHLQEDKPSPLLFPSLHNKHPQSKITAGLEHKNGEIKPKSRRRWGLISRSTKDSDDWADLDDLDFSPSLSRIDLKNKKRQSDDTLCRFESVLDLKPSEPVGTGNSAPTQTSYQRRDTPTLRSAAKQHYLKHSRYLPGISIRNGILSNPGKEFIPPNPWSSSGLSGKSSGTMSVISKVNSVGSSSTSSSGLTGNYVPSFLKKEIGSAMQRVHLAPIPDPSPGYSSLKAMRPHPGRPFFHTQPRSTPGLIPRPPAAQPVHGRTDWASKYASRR

[3] = target: Proto-oncogene tyrosine-protein kinase ROS (Homo sapiens) (UniProt P08922); test: Selectivity interaction (Ambit KINOMEscan and KiNATiv profiling in Jurkat cells) EUB0000090b ROS1; type: cell-based; settings: at 1 µM
Adenosine receptor A2a = Adenosine receptor A2a (Homo sapiens, UniProt P29274); test: Selectivity interaction (Adenosine 2A receptor binding assay, human recombinant ) EUB0000877a ADORA2A
[4] = target: Serine/threonine-protein kinase/endoribonuclease IRE1 (Homo sapiens) (UniProt O75460); test: Selectivity interaction (LanthaScreen Eu Kinase Binding Assay) EUB0001632a ERN1; settings: at 10 µM
[5] = target: 5'-AMP-activated protein kinase catalytic subunit alpha-1 (Homo sapiens, UniProt Q13131); test: Selectivity interaction (KinomeScan (DiscoverX)) EUB0000595a PRKAA1; settings: at 10 µM
[6] = target: T2, Phosphatidylinositol 5-phosphate 4-kinase type-2 gamma (Homo sapiens) (UniProt Q8TBX8); test: Selectivity interaction (KinomeScan (DiscoverX)) EUB0000229b PIP4K2C; settings: at 10 µM
T2 sequence (whole entry): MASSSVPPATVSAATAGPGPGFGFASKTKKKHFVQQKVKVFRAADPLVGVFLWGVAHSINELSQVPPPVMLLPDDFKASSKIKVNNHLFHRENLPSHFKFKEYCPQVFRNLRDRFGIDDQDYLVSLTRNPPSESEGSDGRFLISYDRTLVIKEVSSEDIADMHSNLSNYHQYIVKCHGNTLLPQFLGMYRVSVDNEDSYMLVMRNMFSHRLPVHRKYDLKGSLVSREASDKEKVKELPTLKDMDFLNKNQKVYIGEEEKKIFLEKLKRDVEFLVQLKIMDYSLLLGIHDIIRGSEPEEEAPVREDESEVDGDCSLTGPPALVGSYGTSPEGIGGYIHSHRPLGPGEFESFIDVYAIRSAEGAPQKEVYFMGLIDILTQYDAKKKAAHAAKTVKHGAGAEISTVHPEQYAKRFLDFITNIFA

[7] = target: Death-associated protein kinase 2 (Homo sapiens) (UniProt Q9UIK4); test: Selectivity interaction (KinomeScan (DiscoverX)) EUB0001079a DAPK2; settings: at 1 µM
[8] = target: Receptor-interacting serine/threonine-protein kinase 2 (Homo sapiens, UniProt O43353); test: Selectivity interaction (KinomeScan (DiscoverX)) EUB0001619a RIPK2; settings: at 1 µM
[9] = target: T3, Bone morphogenetic protein receptor type-2 (Homo sapiens) (UniProt Q13873); test: Selectivity interaction (Kinase panel (DSF assay)) EUB0001559a BMPR2
T3 sequence (whole entry): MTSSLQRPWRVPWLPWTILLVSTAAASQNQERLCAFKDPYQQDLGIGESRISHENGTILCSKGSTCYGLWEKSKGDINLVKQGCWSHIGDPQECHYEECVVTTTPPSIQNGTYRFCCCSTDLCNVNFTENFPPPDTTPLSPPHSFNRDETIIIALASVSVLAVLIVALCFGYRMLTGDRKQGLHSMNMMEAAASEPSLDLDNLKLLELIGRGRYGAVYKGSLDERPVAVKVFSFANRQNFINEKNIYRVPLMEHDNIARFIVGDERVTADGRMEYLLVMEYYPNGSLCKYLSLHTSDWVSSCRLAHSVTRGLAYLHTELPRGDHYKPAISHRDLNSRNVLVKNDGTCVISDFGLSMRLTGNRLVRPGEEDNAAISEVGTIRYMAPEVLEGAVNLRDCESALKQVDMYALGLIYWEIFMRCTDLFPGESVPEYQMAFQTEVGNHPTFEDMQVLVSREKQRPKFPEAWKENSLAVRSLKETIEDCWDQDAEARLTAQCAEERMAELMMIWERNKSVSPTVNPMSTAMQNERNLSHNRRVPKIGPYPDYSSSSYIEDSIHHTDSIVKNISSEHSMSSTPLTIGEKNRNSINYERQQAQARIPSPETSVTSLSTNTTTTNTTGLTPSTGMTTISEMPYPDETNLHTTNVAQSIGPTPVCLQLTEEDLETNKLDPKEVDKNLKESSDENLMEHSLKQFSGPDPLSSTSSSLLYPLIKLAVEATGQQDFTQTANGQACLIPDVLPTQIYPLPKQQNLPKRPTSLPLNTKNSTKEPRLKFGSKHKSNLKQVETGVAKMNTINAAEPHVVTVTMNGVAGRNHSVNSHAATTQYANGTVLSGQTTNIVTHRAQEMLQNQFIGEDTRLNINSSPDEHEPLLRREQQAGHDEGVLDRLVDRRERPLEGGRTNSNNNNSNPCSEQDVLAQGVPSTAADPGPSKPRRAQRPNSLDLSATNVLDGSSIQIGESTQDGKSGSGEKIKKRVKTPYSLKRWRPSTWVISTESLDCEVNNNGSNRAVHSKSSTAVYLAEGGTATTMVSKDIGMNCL

Sequence of Calcium/calmodulin-dependent protein kinase kinase 2 (Homo sapiens) (Q96RR4 2-588 limits assumed): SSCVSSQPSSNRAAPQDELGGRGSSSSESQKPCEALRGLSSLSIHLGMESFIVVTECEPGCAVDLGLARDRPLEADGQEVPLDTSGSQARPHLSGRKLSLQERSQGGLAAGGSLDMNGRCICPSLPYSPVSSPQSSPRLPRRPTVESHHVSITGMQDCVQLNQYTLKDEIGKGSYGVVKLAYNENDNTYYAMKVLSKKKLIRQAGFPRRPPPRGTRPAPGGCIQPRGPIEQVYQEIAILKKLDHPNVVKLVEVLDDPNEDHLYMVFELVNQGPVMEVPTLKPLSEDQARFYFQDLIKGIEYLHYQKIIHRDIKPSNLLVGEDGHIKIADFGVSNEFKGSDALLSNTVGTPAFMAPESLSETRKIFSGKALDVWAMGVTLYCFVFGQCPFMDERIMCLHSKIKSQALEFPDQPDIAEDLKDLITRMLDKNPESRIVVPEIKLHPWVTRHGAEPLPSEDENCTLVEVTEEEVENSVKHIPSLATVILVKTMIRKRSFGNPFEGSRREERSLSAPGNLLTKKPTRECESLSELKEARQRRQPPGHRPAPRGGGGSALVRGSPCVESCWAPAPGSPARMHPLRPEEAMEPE
Sequence of Death-associated protein kinase 2 (Homo sapiens) (Q9UIK4 whole entry, looked up): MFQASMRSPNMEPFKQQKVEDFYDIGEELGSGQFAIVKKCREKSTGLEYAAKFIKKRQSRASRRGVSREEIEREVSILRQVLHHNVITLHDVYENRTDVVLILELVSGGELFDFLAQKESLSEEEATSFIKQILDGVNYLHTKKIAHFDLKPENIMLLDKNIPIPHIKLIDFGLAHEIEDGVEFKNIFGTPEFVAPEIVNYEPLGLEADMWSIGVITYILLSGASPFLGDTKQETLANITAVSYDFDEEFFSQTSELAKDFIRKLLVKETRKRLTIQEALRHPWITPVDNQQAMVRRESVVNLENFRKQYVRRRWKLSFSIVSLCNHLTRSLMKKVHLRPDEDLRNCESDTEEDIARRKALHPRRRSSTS
Sequence of Serine/threonine-protein kinase/endoribonuclease IRE1 (Homo sapiens) (O75460 19-977 limits assumed): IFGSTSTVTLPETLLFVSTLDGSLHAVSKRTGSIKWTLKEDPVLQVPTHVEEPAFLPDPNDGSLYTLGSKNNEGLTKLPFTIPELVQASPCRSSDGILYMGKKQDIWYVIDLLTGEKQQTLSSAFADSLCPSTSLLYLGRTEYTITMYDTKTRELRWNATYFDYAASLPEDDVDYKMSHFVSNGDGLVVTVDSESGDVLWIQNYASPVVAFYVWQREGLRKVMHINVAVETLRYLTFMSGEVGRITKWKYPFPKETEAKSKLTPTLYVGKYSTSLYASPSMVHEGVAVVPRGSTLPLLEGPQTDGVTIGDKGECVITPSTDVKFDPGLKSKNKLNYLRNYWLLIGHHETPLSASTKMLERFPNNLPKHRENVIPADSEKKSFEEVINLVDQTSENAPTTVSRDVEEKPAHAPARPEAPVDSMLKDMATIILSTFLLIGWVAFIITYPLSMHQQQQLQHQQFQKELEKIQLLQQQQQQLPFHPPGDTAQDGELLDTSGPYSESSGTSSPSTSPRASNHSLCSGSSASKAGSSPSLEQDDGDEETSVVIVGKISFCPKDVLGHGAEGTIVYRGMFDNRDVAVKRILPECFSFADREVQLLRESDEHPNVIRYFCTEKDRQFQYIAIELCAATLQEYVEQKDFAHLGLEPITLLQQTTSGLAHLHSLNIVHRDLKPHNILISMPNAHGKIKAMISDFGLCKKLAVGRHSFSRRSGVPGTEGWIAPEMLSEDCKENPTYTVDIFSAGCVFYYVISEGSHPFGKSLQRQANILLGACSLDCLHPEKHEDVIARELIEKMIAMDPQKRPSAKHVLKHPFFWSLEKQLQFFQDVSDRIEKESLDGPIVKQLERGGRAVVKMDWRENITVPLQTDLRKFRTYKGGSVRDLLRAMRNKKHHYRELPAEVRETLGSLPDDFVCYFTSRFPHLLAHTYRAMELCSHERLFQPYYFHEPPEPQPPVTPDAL
Sequence of Receptor-interacting serine/threonine-protein kinase 2 (O43353 whole entry): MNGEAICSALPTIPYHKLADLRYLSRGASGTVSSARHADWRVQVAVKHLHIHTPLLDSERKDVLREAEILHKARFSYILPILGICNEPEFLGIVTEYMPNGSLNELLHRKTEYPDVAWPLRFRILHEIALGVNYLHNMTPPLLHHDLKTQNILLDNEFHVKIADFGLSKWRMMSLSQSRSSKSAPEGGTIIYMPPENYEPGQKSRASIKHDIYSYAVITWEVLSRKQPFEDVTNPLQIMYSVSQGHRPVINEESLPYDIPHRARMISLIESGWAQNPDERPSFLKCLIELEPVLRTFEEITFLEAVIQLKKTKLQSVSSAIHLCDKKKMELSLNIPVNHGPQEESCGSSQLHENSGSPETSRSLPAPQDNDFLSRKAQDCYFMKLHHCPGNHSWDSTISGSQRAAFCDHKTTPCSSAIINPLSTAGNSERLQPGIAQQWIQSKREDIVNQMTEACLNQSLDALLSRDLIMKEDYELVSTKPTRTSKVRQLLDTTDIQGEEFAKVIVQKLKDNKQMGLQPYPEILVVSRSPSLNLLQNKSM
Sequence of 5'-AMP-activated protein kinase catalytic subunit alpha-1 (Q13131 whole entry, looked up): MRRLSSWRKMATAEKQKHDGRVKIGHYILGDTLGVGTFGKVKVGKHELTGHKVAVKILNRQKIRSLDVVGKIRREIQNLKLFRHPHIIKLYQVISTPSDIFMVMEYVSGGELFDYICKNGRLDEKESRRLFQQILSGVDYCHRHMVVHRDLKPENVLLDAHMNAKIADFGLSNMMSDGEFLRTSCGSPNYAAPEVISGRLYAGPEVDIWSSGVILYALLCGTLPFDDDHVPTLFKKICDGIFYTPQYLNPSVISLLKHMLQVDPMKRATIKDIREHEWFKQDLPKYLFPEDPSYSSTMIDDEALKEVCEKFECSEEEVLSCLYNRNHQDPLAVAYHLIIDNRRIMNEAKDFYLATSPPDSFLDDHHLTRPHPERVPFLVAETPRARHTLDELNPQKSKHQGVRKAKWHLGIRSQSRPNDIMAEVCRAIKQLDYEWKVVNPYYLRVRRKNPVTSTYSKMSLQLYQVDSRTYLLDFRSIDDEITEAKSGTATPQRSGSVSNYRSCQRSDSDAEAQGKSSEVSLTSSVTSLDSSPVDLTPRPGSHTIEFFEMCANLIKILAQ
Sequence of Adenosine receptor A2a (P29274 whole entry): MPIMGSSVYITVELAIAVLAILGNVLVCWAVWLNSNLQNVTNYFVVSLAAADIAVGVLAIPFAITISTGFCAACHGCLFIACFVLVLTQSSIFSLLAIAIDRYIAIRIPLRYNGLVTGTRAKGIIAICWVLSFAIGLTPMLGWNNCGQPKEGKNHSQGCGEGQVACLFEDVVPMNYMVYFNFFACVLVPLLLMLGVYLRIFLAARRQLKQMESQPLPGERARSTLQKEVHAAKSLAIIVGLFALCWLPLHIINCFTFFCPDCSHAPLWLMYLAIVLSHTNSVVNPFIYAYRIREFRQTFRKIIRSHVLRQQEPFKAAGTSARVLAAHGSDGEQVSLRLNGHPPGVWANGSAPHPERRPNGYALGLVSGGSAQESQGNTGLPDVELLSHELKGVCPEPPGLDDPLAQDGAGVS

SMILES: Cc1cc([C@@H](C)Nc2ccccc2C(=O)O)c2nc(N3CCOCC3)cc(=O)n2c1 [AZD-6482]
% of control [1]: 100% | % of control [2]: 100%

SMILES: CN(C)C/C=C/C(=O)Nc1ccc(C(=O)N2CCCC(Nc3ncc(Cl)c(-c4c[nH]c5ccccc45)n3)C2)cc1 (stereo not given)
% of control [3]: 85%

IC50 (Adenosine receptor A2a): > 30 µM
SMILES: CCC(=O)N1CC[C@H](Nc2ncnc3c2CN(c2cnc(OC)c(C(F)(F)F)c2)CC3)C1 [LENIOLISIB]

% of inhibition [4]: -111%
SMILES: Cn1cc(-n2cnc3c(NCc4nc5cc(Cl)c(Cl)cc5[nH]4)nc(N4CCOCC4)nc32)cn1

SMILES: COCC(=O)NC/C=C/c1ccc2ncnc(Nc3ccc(Oc4ccc(C)nc4)c(C)c3)c2c1 [CP-724714]
% of control [5]: 89%

SMILES: COc1cc(N(C)c2ccnc3ccc(C(F)(F)F)cc23)cc(OC)c1OC
% binding [6]: 38%

SMILES: Nc1cnc(N2CCc3cc(S(=O)(=O)Nc4c(F)cc(Cl)cc4F)cc(N4CCCC4=O)c32)nc1 [TP-020n]
% of control [7]: 91%

SMILES: N#Cc1cccc(-c2c[nH]c3ncnc(N4CCOCC4)c23)c1
% of control [8]: 84%

dTM [9]: -0.3 K
SMILES: CN(C(=O)c1cnn2cccnc12)c1cc2c(cc1N1CCOCC1)C(=O)N(C[C@@H](F)C(C)(C)O)C2
